Results from paper PMC11898958, “Application of Biomimetic Chromatography and QSRR Approach for Characterizing Organophosphate Pesticides” (International Journal of Molecular Sciences, 2025).
Read-outs that look alike come from different tables or passages of the source.

Assays:
human serum albumin = human serum albumin (Homo sapiens, UniProt P02768)
Procedure: Each column was equipped with an appropriate precolumn. Elution was conducted under the following conditions:

[1] = Affinity to phospholipids by IAM-HPLC (IAM.PC.DD2 column); type: physicochemical
Procedure: (§1) Elution was conducted under the following conditions:
(§2) The injected volume was 10 μL. […] Each sample was analyzed three times.

[2] = Chromatographic lipophilicity by RP-HPLC on C18 column (CHIC18); type: physicochemical
Procedure: as §1, §2

[3] = HSA column, isopropanol gradient, 50 mM ammonium acetate pH 7.4, 30 °C
[4] = IAM.PC.DD2 column, acetonitrile gradient, 50 mM ammonium acetate pH 7.4, 30 °C
[5] = C18 XTERRA RP18 column, acetonitrile gradient, 50 mM ammonium acetate pH 7.4, 30 °C

Chain of human serum albumin (P02768 25-609): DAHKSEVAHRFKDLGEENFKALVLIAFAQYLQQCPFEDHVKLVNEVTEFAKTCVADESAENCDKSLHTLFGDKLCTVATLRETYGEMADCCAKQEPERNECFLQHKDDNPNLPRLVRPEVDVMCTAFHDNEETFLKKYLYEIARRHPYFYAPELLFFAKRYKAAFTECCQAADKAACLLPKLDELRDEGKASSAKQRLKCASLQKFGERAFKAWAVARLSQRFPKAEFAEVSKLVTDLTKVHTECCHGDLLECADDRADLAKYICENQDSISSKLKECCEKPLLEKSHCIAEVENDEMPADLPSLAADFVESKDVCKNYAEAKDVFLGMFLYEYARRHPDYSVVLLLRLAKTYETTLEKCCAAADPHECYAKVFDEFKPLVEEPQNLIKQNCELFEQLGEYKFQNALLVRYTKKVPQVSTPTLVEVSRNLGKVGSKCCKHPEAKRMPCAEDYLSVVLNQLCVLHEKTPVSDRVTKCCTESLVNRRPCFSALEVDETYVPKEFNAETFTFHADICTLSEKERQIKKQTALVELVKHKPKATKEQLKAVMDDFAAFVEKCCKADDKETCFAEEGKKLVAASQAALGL

Compound | %HSA (binding to HSA) (human serum albumin; [3]) [%] | LogkHSA (chromatographically determined affinity to HSA-HPLC) (human serum albumin; [3]) | CHIIAM (chromatographic hydrophobicity index of IAM-HPLC) [1, 4] | CHIC18 (chromatographic hydrophobicity index of RP-HPLC) [2, 5] | other results
CCOP(=S)(OCC)Oc1cnc2ccccc2n1 [Quinalphos] | 91.23 | 0.97 | 39.40 | 101.01 | CHIC18 (chromatographic hydrophobicity index of RP-HPLC) ([2]; C18 XTERRA RP18 column, acetonitrile gradient, 50 mM ammonium acetate pH 7.4, 30 °C, listed as quinalphos): remarkably high lipophilicity
CCOP(=S)(OCC)SCSCC [Phorate] | 93.08 | 1.07 | 42.43 | 108.36 | CHIIAM (chromatographic hydrophobicity index of IAM-HPLC) ([1]; IAM.PC.DD2 column, acetonitrile gradient, 50 mM ammonium acetate pH 7.4, 30 °C, listed as phorate): highest CHIIAM values
CCOP(=S)(OCC)SCCSCC [Disulfoton] | 92.86 | 1.06 | 42.34 | 108.97 | CHIIAM (chromatographic hydrophobicity index of IAM-HPLC) ([1]; IAM.PC.DD2 column, acetonitrile gradient, 50 mM ammonium acetate pH 7.4, 30 °C, listed as disulfoton): highest CHIIAM values; CHIC18 (chromatographic hydrophobicity index of RP-HPLC) ([2]; C18 XTERRA RP18 column, acetonitrile gradient, 50 mM ammonium acetate pH 7.4, 30 °C, listed as disulfoton): remarkably high lipophilicity
Chlorpyrifos-oxon |  | 0.68 | 24.96 | 39.17 | %HSA (binding to HSA) (human serum albumin; pH 7.4): 83.49%
CCOP(=S)(OCC)SCn1nnc2ccccc2c1=O [Azinphos-ethyl] | 92.07 | 1.01 | 37.81 | 95.69 | 
COP(=S)(OC)SCn1nnc2ccccc2c1=O [Azinphos-methyl] | 86.70 | 0.78 | 33.18 | 83.47 | 
CCOC(=O)N(C)C(=O)CSP(=S)(OCC)OCC [Mecarbam] | 74.23 | 0.44 | 35.77 | 97.09 | 
COP(=O)(OC)OC=C(Cl)Cl [Dichlorvos] | 65.86 | 0.27 | 16.56 | 23.17 | CHIC18 (chromatographic hydrophobicity index of RP-HPLC) ([2]; C18 XTERRA RP18 column, acetonitrile gradient, 50 mM ammonium acetate pH 7.4, 30 °C, listed as dichlorvos): low lipophilicity
CCOP(=S)(OCC)Oc1cc(C)nc(C(C)C)n1 [Diazinon] | 81.33 | 0.62 | 39.34 | 105.98 | CHIC18 (chromatographic hydrophobicity index of RP-HPLC) ([2]; C18 XTERRA RP18 column, acetonitrile gradient, 50 mM ammonium acetate pH 7.4, 30 °C, listed as diazinon): remarkably high lipophilicity
COP(=S)(OC)Oc1ccc([N+](=O)[O-])c(C)c1 [Fenitrothion] | 91.78 | 1.00 | 38.10 | 93.49 | 
CCOP(=O)(OCC)OC(=CCl)c1ccc(Cl)cc1Cl [Chlorfenvinphos] | 85.54 | 0.74 | 38.13 | 97.18 | 
COP(=S)(OC)SCN1C(=O)c2ccccc2C1=O [Phosmet] | 87.23 | 0.80 | 33.89 | 85.39 | 
COP(=O)(OC)OC(Br)C(Cl)(Cl)Br (centres unmarked) [Naled] | 43.86 | −0.11 | 29.79 | 31.32 | CHIC18 (chromatographic hydrophobicity index of RP-HPLC) ([2]; C18 XTERRA RP18 column, acetonitrile gradient, 50 mM ammonium acetate pH 7.4, 30 °C, listed as naled): low lipophilicity
CCOP(=O)(OCC)Oc1ccc([N+](=O)[O-])cc1 [Paraoxon-ethyl] | 27.68 | −0.42 | 25.34 | 72.54 | 
CCCSP(=O)(OCC)SCCC [Ethoprophos] |  |  |  |  | %HSA (binding to HSA) (human serum albumin; human, pH 7.4): 28.35%; LogkHSA (chromatographically determined affinity to HSA-HPLC) (human serum albumin; human, pH 7.4): −0.41; CHIIAM (chromatographic hydrophobicity index of IAM-HPLC) ([1]; pH 7.4): 32.41; CHIC18 (chromatographic hydrophobicity index of RP-HPLC) ([2]; pH 7.4): 88.39
COP(=S)(OC)Oc1ccc([N+](=O)[O-])cc1 [Parathion-methyl] | 87.94 | 0.83 | 35.54 | 88.75 | 
COP(=S)(OC)Oc1ccc(SC)c(C)c1 [Fenthion] | 96.04 | 1.29 | 42.37 | 102.16 | %HSA (binding to HSA) (human serum albumin; HSA column, isopropanol gradient, 50 mM ammonium acetate pH 7.4, 30 °C, listed as fenthion): highest protein-binding capacity; CHIIAM (chromatographic hydrophobicity index of IAM-HPLC) ([1]; IAM.PC.DD2 column, acetonitrile gradient, 50 mM ammonium acetate pH 7.4, 30 °C, listed as fenthion): highest CHIIAM values
